This passage reports EC50, SI and CC50 results from US10730884B2, “Substituted indole compound derivatives as dengue viral replication inhibitors” (Janssen Pharmaceuticals, Inc., priority 2016, dated 2020).

The subject of one data set is DENV-2 16681 strain. The data set is described as follows: DENV-2 antiviral assay (eGFP-labeled virus, Vero cells). Type of data set: cell-based, Dengue virus. The conditions noted are these: DENV-2 16681 eGFP, Vero cells, MOI 0.5, 3 days. As for the experimental part:
The antiviral activity of all the compounds of the invention was tested against the DENV-2 16681 strain which was labeled with enhanced green fluorescent protein (eGPF). The culture medium consists of minimal essential medium supplemented with 2% of heat-inactivated fetal calf serum, 0.04% gentamycin (50 mg/mL) and 2 mM of L-glutamine. Vero cells, obtained from ECACC, were suspended in culture medium and 25 μL was added to 384-well plates (2500 cells/well), which already contain the antiviral compounds. Typically, these plates contain a 5-fold serial dilution of 9 dilution steps of the test compound at 200 times the final concentration in 100% DMSO (200 nL). […] Finally, each plate contains wells which are assigned as virus controls (containing cells and virus in the absence of compound), cell controls (containing cells in the absence of virus and compound) and medium controls (containing medium in the absence of cells, virus and compounds). To the wells assigned as medium control, 25 μL of culture medium was added instead of Vero cells. Once the cells were added to the plates, the plates were incubated for 30 minutes at room temperature to allow the cells to distribute evenly within the wells. Next, the plates were incubated in a fully humidified incubator (37° C., 5% CO2) until the next day. Then, DENV-2 strain 16681, labeled with eGFP, was added at a multiplicity of infection (MOI) of 0.5. Therefore, 15 μL of virus suspension was added to all the wells containing test compound and to the wells assigned as virus control. In parallel, 15 μL of culture medium was added to the medium and cell controls. Next, the plates were incubated for 3 days in a fully humidified incubator (37° C., 5% CO2). At the day of the read out, the eGFP fluorescence was measured using an automated fluorescence microscope at 488 nm (blue laser). Using an in-house LIMS system, inhibition dose response curves for each compound were calculated and the half maximal effective concentration (EC50) was determined. Therefore, the percent inhibition (I) for every test concentration is calculated using the following formula: I=100*([…])/(SVC−SCC); ST, SCC and SVC are the amount of eGFP signal in the test compound, cell control and virus control wells, respectively. The EC50 represents the concentration of a compound at which the virus replication is inhibited with 50%, as measured by a 50% reduction of the eGFP fluorescent intensity compared to the virus control. The EC50 is calculated using linear interpolation (Table 1).
`COc1cc(NC(C(=O)c2c[nH]c3c4c(ccc23)OCC4)c2ccc(Cl)cc2OC)cc(OCCO)c1` (single isomer, unassigned) [Compound 11B] registered an EC50 of 170 nM.

Take `[2H]C(Nc1cc(OC)cc(OCCO)c1)(C(=O)c1c[nH]c2cc(F)ccc12)c1ccc(Cl)cc1OC` (single isomer, unassigned) [Compound 13B-D]: it took 170 nM to reach a half-maximal effect (EC50).

On to `COc1cc(NC(C(=O)c2c[nH]c3cc(F)c(C)cc23)c2ccc(F)cc2OC)cc(OCCO)c1` (single isomer, unassigned) [Compound 3A], for which the midpoint of the response, the EC50, lay at 1.1 nM.

`[2H]C(Nc1cc(OC)cc(OCCO)c1)(C(=O)c1c[nH]c2cc(OC)c(C)cc12)c1ccc(Cl)cc1OC` (single isomer, unassigned) [Compound 14B-D] yielded an EC50 of 110 nM.

In the case of `COc1cc(NC(C(=O)c2c[nH]c3cc(OC)c(Cl)cc23)c2ccc(F)cc2OC)cc(OCCO)c1` (single isomer, unassigned) [Compound 2B], the EC50 stood at 130 nM.

`COc1cc(NC(C(=O)c2c[nH]c3cc4c(cc23)CCO4)c2ccc(F)cc2OC)cc(OCCO)c1` (single isomer, unassigned) [Compound 7B] displayed an EC50 of 630 nM.

For `COc1cc(NC(C(=O)c2c[nH]c3c(C)cc(Cl)cc23)c2ccc(F)cc2OC)cc(OCCO)c1` (single isomer, unassigned) [Compound 1B], a half-maximal response (EC50) required 72 nM.

The data set is the same for the next values; noted with them: SI=CC50/EC50, DENV-2 antiviral assay.
In the case of `COc1cc(NC(C(=O)c2c[nH]c3c4c(ccc23)OCC4)c2ccc(Cl)cc2OC)cc(OCCO)c1` (single isomer, unassigned) [Compound 11B], the SI turned out to be 49.

The compound `[2H]C(Nc1cc(OC)cc(OCCO)c1)(C(=O)c1c[nH]c2cc(F)ccc12)c1ccc(Cl)cc1OC` (single isomer, unassigned) [Compound 13B-D] registered an SI of 54.

In turn, `COc1cc(NC(C(=O)c2c[nH]c3cc(F)c(C)cc23)c2ccc(F)cc2OC)cc(OCCO)c1` (single isomer, unassigned) [Compound 3A] yielded an SI of 3230.

In turn, `[2H]C(Nc1cc(OC)cc(OCCO)c1)(C(=O)c1c[nH]c2cc(OC)c(C)cc12)c1ccc(Cl)cc1OC` (single isomer, unassigned) [Compound 14B-D] gave an SI of 52.

The compound `COc1cc(NC(C(=O)c2c[nH]c3cc(OC)c(Cl)cc23)c2ccc(F)cc2OC)cc(OCCO)c1` (single isomer, unassigned) [Compound 2B] came in with an SI of 85.

In the case of `COc1cc(NC(C(=O)c2c[nH]c3cc4c(cc23)CCO4)c2ccc(F)cc2OC)cc(OCCO)c1` (single isomer, unassigned) [Compound 7B], the SI is 19.

Regarding `COc1cc(NC(C(=O)c2c[nH]c3c(C)cc(Cl)cc23)c2ccc(F)cc2OC)cc(OCCO)c1` (single isomer, unassigned) [Compound 1B], the SI stood at 148.

Another data set deals with DENV-1 strain TC974#666. The data set is described as follows: Tetravalent RT-qPCR assay, serotype 1. The conditions noted are these: Dengue virus, DENV1, Vero, 72 h, RT-qPCR serotype 1 TC974#666, Protocol A, Vero cells, day 3; read-out: EC50. Type of data set: cell-based, Dengue virus. As for the experimental part:
(§1) The antiviral activity of the compounds of the invention was tested against DENV-1 strain TC974#666 (NCPV), DENV-2 strain 16681, DENV-3 strain H87 (NCPV) and DENV-4 strain H241 (NCPV) in a RT-qPCR assay. Therefore, Vero cells were infected with either DENV-1, or -2, or -3, or -4 in the presence or absence of test compounds. At day 3 post-infection, the cells were lysed and cell lysates were used to prepare cDNA of both a viral target (the 3′UTR of DENV; Table 2) and a cellular reference gene (β-actin, Table 2). Subsequently, a duplex real time PCR was performed on a Lightcycler480 instrument. The generated Cp value is inversely proportional to the amount of RNA expression of these targets. Inhibition of DENV replication by a test compound result in a shift of Cp's for the 3′UTR gene. On the other hand, if a test compound is toxic to the cells, a similar effect on β-actin expression will be observed. The comparative ΔΔCp method is used to calculate EC50, which is based on the relative gene expression of the target gene (3′UTR) normalized with the cellular housekeeping gene (β-actin). In addition, CC50 values are determined based on the Cp values acquired for the housekeeping gene β-actin.
(§2) The culture medium consisted of minimal essential medium supplemented with 2% of heat-inactivated fetal calf serum, 0.04% gentamycin (50 mg/mL) and 2 mM of L-glutamine. Vero cells, obtained from ECACC, were suspended in culture medium and 75 μL/well was added in 96-well plates (10000 cells/well), which already contain the antiviral compounds. […] In addition, each plate contains wells which are assigned as virus controls (containing cells and virus in the absence of compound) and cell controls (containing cells in the absence of virus and compound). Once the cells were added in the plates, the plates were incubated in a fully humidified incubator (37° C., 5% CO2) until the next day. Dengue viruses serotype-1, 2, 3 and 4 were diluted in order to obtain a Cp of ˜22-24 in the assay. Therefore, 25 μL of virus suspension was added to all the wells containing test compound and to the wells assigned as virus control. In parallel, 25 μL of culture medium was added to the cell controls. Next, the plates were incubated for 3 days in a fully humidified incubator (37° C., 5% CO2). After 3 days, the supernatant was removed from the wells and the cells were washed twice with ice-cold PBS (˜100 μL). The cell pellets within the 96-well plates were stored at −80° C. for at least 1 day. Next, RNA was extracted using the Cells-to-CT™ lysis kit, according to the manufacturer's guideline (Life Technologies). The cell lysates can be stored at −80° C. or immediately used in the reverse transcription step.
(§3) In preparation of the reverse transcription step, mix A (table 3A) was prepared and 7.57 μL/well was dispensed in a 96-well plate. After addition of 5 μL of the cell lysates, a five minute denaturation step at 75° C. was performed (table 3B). Afterwards, 7.43 μL of mix B was added (table 3C) and the reverse transcription step was initiated (table 3D) to generate cDNA.
(§4) Finally, a RT-qPCR mix was prepared, mix C (table 4A), and 22.02 μL/well was dispensed in 96-well LightCycler qPCR plates to which 3 μL of cDNA was added and the qPCR was performed according to the conditions in table 4B on a LightCycler 480.
(§5) Using the LightCycler software and an in-house LIMS system, dose response curves for each compound were calculated and the half maximal effective concentration (EC50) and the half maximal cytotoxic concentration (CC50) were determined (Tables 5-8).
In the case of `COc1cc(NC(C(=O)c2c[nH]c3cc(F)c(C)cc23)c2ccc(F)cc2OC)cc(OCCO)c1` (single isomer, unassigned) [Compound 3A], the EC50 is 4 nM.

Staying with this data set, now noted: RT-qPCR serotype 1 TC974#666.
Compound `COc1cc(NC(C(=O)c2c[nH]c3cc(F)c(C)cc23)c2ccc(F)cc2OC)cc(OCCO)c1` (single isomer, unassigned) [Compound 3A] returned an SI of 748.

In a further data set the test system is DENV-2 strain 16681. Kind of data set: Tetravalent RT-qPCR assay, serotype 2. Type of data set: cell-based, Dengue virus. The conditions noted are these: Dengue virus, DENV2, Vero, 72 h, RT-qPCR serotype 2 16681, Protocol A, Vero cells, day 3. As for the experimental part: as §1, §2, §3, §4, §5
On to `COc1cc(NC(C(=O)c2c[nH]c3cc(F)c(C)cc23)c2ccc(F)cc2OC)cc(OCCO)c1` (single isomer, unassigned) [Compound 3A], for which the EC50 came to 1.6 nM.

Staying with this data set, now noted: RT-qPCR serotype 2 16681.
`COc1cc(NC(C(=O)c2c[nH]c3cc(F)c(C)cc23)c2ccc(F)cc2OC)cc(OCCO)c1` (single isomer, unassigned) [Compound 3A] had an SI of 1610.

In the next data set the test system is DENV-3 strain H87. The data set is described as follows: Tetravalent RT-qPCR assay, serotype 3. Format: cell-based, Dengue virus. The conditions noted are these: Dengue virus, DENV3, Vero, 72 h, RT-qPCR serotype 3 H87, Protocol A, Vero cells, day 3; read-out: EC50. As for the experimental part: as §1, §2, §3, §4, §5
For `COc1cc(NC(C(=O)c2c[nH]c3cc(F)c(C)cc23)c2ccc(F)cc2OC)cc(OCCO)c1` (single isomer, unassigned) [Compound 3A], the EC50 came out at 22 nM.

Staying with this data set, now noted: RT-qPCR serotype 3 H87.
Compound `COc1cc(NC(C(=O)c2c[nH]c3cc(F)c(C)cc23)c2ccc(F)cc2OC)cc(OCCO)c1` (single isomer, unassigned) [Compound 3A] had an SI of 42.

In another data set the test system is DENV-4 strain H241. Kind of data set: Tetravalent RT-qPCR assay, serotype 4. Type of data set: cell-based, Dengue virus. The conditions noted are these: Dengue virus, DENV4, Vero, 72 h, RT-qPCR serotype 4 H241, Protocol A, Vero cells, day 3. As for the experimental part: as §1, §2, §3, §4, §5
`COc1cc(NC(C(=O)c2c[nH]c3cc(F)c(C)cc23)c2ccc(F)cc2OC)cc(OCCO)c1` (single isomer, unassigned) [Compound 3A] had a 50% effective concentration (EC50) of 210 nM.

Still in this data set, the particulars now being: RT-qPCR serotype 4 H241.
In turn, `COc1cc(NC(C(=O)c2c[nH]c3cc(F)c(C)cc23)c2ccc(F)cc2OC)cc(OCCO)c1` (single isomer, unassigned) [Compound 3A] gave an SI of 11.

A further data set deals with Vero cells.
Assay: not given
The conditions noted are these: African green monkey.
On to `COc1cc(NC(C(=O)c2c[nH]c3c4c(ccc23)OCC4)c2ccc(Cl)cc2OC)cc(OCCO)c1` (single isomer, unassigned) [Compound 11B], for which it took 8200 nM to reach half-maximal cytotoxicity (CC50).

In turn, `[2H]C(Nc1cc(OC)cc(OCCO)c1)(C(=O)c1c[nH]c2cc(F)ccc12)c1ccc(Cl)cc1OC` (single isomer, unassigned) [Compound 13B-D] had a CC50 of 9600 nM.

As for `COc1cc(NC(C(=O)c2c[nH]c3cc(F)c(C)cc23)c2ccc(F)cc2OC)cc(OCCO)c1` (single isomer, unassigned) [Compound 3A], half-maximal cytotoxicity (CC50) was put at 3800 nM.

Compound `[2H]C(Nc1cc(OC)cc(OCCO)c1)(C(=O)c1c[nH]c2cc(OC)c(C)cc12)c1ccc(Cl)cc1OC` (single isomer, unassigned) [Compound 14B-D] had a CC50 of 6000 nM.

Take `COc1cc(NC(C(=O)c2c[nH]c3cc(OC)c(Cl)cc23)c2ccc(F)cc2OC)cc(OCCO)c1` (single isomer, unassigned) [Compound 2B]: the CC50 turned out to be 11000 nM.

`COc1cc(NC(C(=O)c2c[nH]c3cc4c(cc23)CCO4)c2ccc(F)cc2OC)cc(OCCO)c1` (single isomer, unassigned) [Compound 7B] yielded a CC50 of 12000 nM.

The compound `COc1cc(NC(C(=O)c2c[nH]c3c(C)cc(Cl)cc23)c2ccc(F)cc2OC)cc(OCCO)c1` (single isomer, unassigned) [Compound 1B] had a cytotoxic concentration (CC50) of 11000 nM.
